From ChEMBL document CHEMBL3227967, “Quantitative structure-activity relationships in 1-aryl-2-(alkylamino)ethanol antimalarials” (J Med Chem, 1979)

The compounds below were run on Plasmodium berghei (assay: Antimalarial activity against Plasmodium berghei).
Format: functional

SMILES	log(1/C)
CCCCN(CCCC)CC(O)c1cc2ccc(Cl)c(Cl)c2c2cc(C(F)(F)F)ccc12 (centres undefined)	3.98
CCCCN(CCCC)CC(O)c1cc(-c2ccc(Cl)cc2)cc2cc(Cl)c(OC)cc12 (centres undefined)	2.96
CCCCN(CCCC)CC(O)c1cc(-c2ccc(F)cc2)nc2cc(F)ccc12 (centres undefined)	2.52
CCN(CC)CC(O)c1cc(-c2ccc(OC)c(OC)c2)nc2ccc(Cl)cc12 (centres undefined)	3.12
CCCC(CCC)N(CC(O)c1cc(-c2ccc(C(F)(F)F)cc2)nc(-c2ccc(C(F)(F)F)cc2)c1)C(CCC)CCC (centres undefined)	4.15
OC(CC1CCCCN1)c1cc(C(F)(F)F)nc2cc(C(F)(F)F)ccc12 (centres undefined)	4.05
CCCCCCCN(CCCCCCC)CC(O)c1c(Br)c2ccccc2c2cc(Br)ccc12 (centres undefined)	3.42
CCCCNCC(O)c1cc(-c2cccc(C(F)(F)F)c2)nc(-c2cccc(C(F)(F)F)c2)c1 (centres undefined)	3.94
CCCCN(CCCC)CC(O)c1cc2cc(Cl)ccc2c2c(Cl)cc(Cl)cc12 (centres undefined)	3.91
CCCCCCCN(CCCCCCC)CC(O)c1cc2cnccc2c2ccccc12 (centres undefined)	2.47
CCCCCCN(CCCCCC)CC(O)c1cc(-c2ccc(Cl)cc2)nc2cc(Cl)ccc12 (centres undefined)	3.28
Cc1cc(C)c2nc(-c3ccc(Cl)cc3)cc(C(O)CC3CCCCN3)c2c1 (centres undefined)	4.04
CCCCN(CCCC)CC(O)c1cc(C(=O)c2ccc(Cl)cc2)cc2c(Cl)cc(Cl)cc12 (centres undefined)	2.66
CCCCN(CCCC)CC(O)c1c(OC)c2cc(Br)ccc2c2ccc(Br)cc12 (centres undefined)	3.94
CCN(CC)CCC(O)c1cc2ccc(C(F)(F)F)cc2c2cc(C(F)(F)F)ccc12 (centres undefined)	4.12
CCCCN(CCCC)CC(O)c1cc(/C=C/c2ccc(C(F)(F)F)cc2)nc(C(=O)c2ccc(C(F)(F)F)cc2)c1 (centres undefined)	3.91
CCCCN(CCCC)CCC(O)c1cc(-c2ccc(Cl)c(Cl)c2)nc2c(Cl)cc(Cl)cc12 (centres undefined)	4.67
CCCCN(CCCC)CC(O)c1cc(Cc2ccccc2)nc2c(Cl)cc(Cl)cc12 (centres undefined)	2.6
CCOc1ccc2nccc(C(O)C[N+]34CCC(CC3)C(CC)C4)c2c1 (centres undefined)	1.97
CCCCN(CCCC)CC(O)c1cc(-c2cccc(C(F)(F)F)c2)nc(-c2ccc(Cl)c(Cl)c2)c1 (centres undefined)	2.9
CCCCCCCN(CCCCCCC)CC(O)c1cc2ccccc2c2ccc(Cl)cc12 (centres undefined)	2.97
OC(CC1CCCCN1)c1cc2cc(C(F)(F)F)ccc2c2ccccc12 (centres undefined)	4.39
CCCCN(CCCC)CC(O)c1cc(-c2ccc(Cl)cc2)nc2cc3c(cc12)OCO3 (centres undefined)	2.99

SMILES	log(1/C)
OC(CC1CCCCN1)c1cc(-c2ccccc2)nc2c(C(F)(F)F)cccc12 (centres undefined)	3.68
CCCCCN(CCCCC)CC(O)c1cc2ccc(Br)cc2c2cc(Br)ccc12 (centres undefined)	3.72
CCCCCCCN(CCCCCCC)CC(O)c1cccc2c1ccc1ccc(Cl)cc12 (centres undefined)	2.54
CCCCN(CCCC)CC(O)c1cc(-c2ccc3c(c2)OCO3)nc2cc(Cl)ccc12 (centres undefined)	3.09
CCCCCCCN(CCCCCCC)CC(O)c1cc2c(Br)cccc2c2cc(Br)ccc12 (centres undefined)	3.33
CCCCCCCN(CCCCCCC)CC(O)c1cc2ccc(C(F)(F)F)cc2c2ccccc12 (centres undefined)	3.12
Cc1ccc2nc(C(F)(F)F)cc(C(O)CC3CCCCN3)c2c1 (centres undefined)	2.84
CCCCCCCN(CCCCCCC)CC(O)c1cc(-c2ccc(F)cc2)nc(-c2ccc(F)cc2)c1 (centres undefined)	2.55
CCCCCCCN(CCCCCCC)CC(O)c1cc2c(Cl)cccc2c2ccccc12 (centres undefined)	2.56
CCCCCCN(CCCCCC)CC(O)c1cc(-c2ccc(OC)cc2)nc2cc(OC)c(Cl)cc12 (centres undefined)	2.64
CCCCNCC(O)c1cc(-c2ccccc2C(F)(F)F)nc(C(F)(F)F)c1 (centres undefined)	3.78
CCCCN(CCCC)CC(O)c1cc(-c2ccccc2)nc2ccccc12 (centres undefined)	2.54
CCCCN(CCCC)CC(O)c1ccc(-c2ccc(Cl)cc2)c2c(Cl)cc(Cl)cc12 (centres undefined)	3.33
OC(C[N+]12CCC(CC1)CC2)c1cc2ccc(Cl)cc2c2cc(Cl)ccc12 (centres undefined)	2.98
CCCCN(CCCC)CC(O)c1cc2c(Cl)cc(Cl)cc2c2c(Cl)cc(Cl)cc12 (centres undefined)	4.05
CCCCN(CCCC)CC(O)c1ccc(Cl)c2cc3cccc(Cl)c3cc12 (centres undefined)	3.39
CCCCN(CCCC)CC(O)c1c2ccccc2cc2cc(Cl)c(Cl)cc12 (centres undefined)	2.89
CCCCCCN(CCCCCC)CC(O)c1cccc2c1cc(Cl)c1ccccc12 (centres undefined)	2.39
CCCCNCC(O)c1cc(-c2ccc(C(F)(F)F)cc2)nc(C(F)(F)F)c1 (centres undefined)	4.08
CCCCNCC(O)c1cc2c(Cl)cc(Cl)cc2c2cc(C(F)(F)F)ccc12 (centres undefined)	4.48
CCCCN(CCCC)CC(O)c1cc(-c2ccc(I)cc2)nc2c(Cl)cc(Cl)cc12 (centres undefined)	4.5
CCCCCCCN(CCCCCCC)CC(O)c1cc2sccc2c2ccsc12 (centres undefined)	2.58
CCCC(CCC)NCC(O)c1cc(-c2ccc(C(F)(F)F)cc2)nc(C(F)(F)F)c1 (centres undefined)	4.47

SMILES	log(1/C)
CCCCN(CCCC)CC(O)c1cc2cc(Cl)c(Cl)cc2c2c(Cl)c(Cl)ccc12 (centres undefined)	4.18
CCCCCCCN(CCCCCCC)CC(O)c1cc2ccccc2c2cc(Br)ccc12.O=C(O)CCC(=O)O (centres undefined)	3.52
CCCCCCCN(CCCCCCC)CC(O)c1cc2ccc(Cl)c(Cl)c2c2cc(C(F)(F)F)ccc12 (centres undefined)	3.92
CCCCCCCN(CCCCCCC)CC(O)c1cc2ccccc2c2cc(Br)ccc12 (centres undefined)	3.55
CCN(CC)CC(O)c1cc2c(Cl)cc(Cl)cc2c2cc(Cl)ccc12 (centres undefined)	3.9
CCCCN(CCCC)CC(O)c1cc(-c2ccc(Cl)cc2)nc(-c2ccc(Cl)c(Cl)c2)c1 (centres undefined)	3
CCCCN(CCCC)CC(O)c1cc2cc(Br)cc(Br)c2c2ccccc12 (centres undefined)	4.22
CCCCN(CCCC)CCC(O)c1cc2ccc(C(F)(F)F)cc2c2cc(C(F)(F)F)ccc12 (centres undefined)	4.03
CCCCN(CCCC)CC(O)c1c2ccccc2c(Br)c2ccccc12 (centres undefined)	2.88
Cc1c(Cl)ccc2c(C(O)CN(CCC(C)C)CCC(C)C)cc(-c3ccc(Cl)cc3)nc12 (centres undefined)	3.09
CCCCCN(CCCCC)CC(O)c1cc(-c2ccc(C(F)(F)F)cc2)nc(-c2ccc(C(F)(F)F)cc2)c1 (centres undefined)	3.97
CCCCN(CCCC)CC(O)c1cc(-c2ccc(Cl)cc2)nc2cc(Cl)c(C)cc12 (centres undefined)	4.22
CCCCCCN(CCCCCC)CC(O)c1cc(-c2ccc(OC)c(OC)c2)nc2ccc(Cl)cc12 (centres undefined)	3.32
CCCCCCCN(CCCCCCC)CC(O)c1cc2ccccc2c2cc(F)ccc12 (centres undefined)	3.08
OC(CC1CCCNC1)c1cc2ccc(C(F)(F)F)cc2c2cc(C(F)(F)F)ccc12 (centres undefined)	3.89
CCCCCCCCCN(CCCCCCCCC)CC(O)c1c2ccccc2cc2ccccc12 (centres undefined)	3.24
CCCNCCC(O)c1cc(C(F)(F)F)nc2c(C(F)(F)F)cccc12 (centres undefined)	2.82
CCCCCCCN(CCCCCCC)CC(O)c1cc2c(Cl)cc(Cl)cc2c2cc(C(F)(F)F)ccc12 (centres undefined)	3.53
CCCCCCCN(CCCCCCC)CC(O)c1cc2ccncc2c2ccccc12 (centres undefined)	2.33
CCCCN(CCCC)CC(O)c1cc2c(Cl)c(Cl)ccc2c2cc(C(F)(F)F)ccc12 (centres undefined)	3.55
CCCCN(CCCC)CC(O)c1cc(-c2ccc(Cl)c(Cl)c2)nc(-c2ccc(Cl)c(Cl)c2)c1 (centres undefined)	2.63
CCCCCCN(CCCCCC)CC(O)c1cc(-c2ccc(OC)cc2)nc2c(Cl)cc(OC)cc12 (centres undefined)	3.15
CCCCN(CCCC)CC(O)c1c(C)c(-c2ccc(Cl)cc2)nc2c(Cl)cc(Cl)cc12 (centres undefined)	3.06
